Read-outs that look alike come from different tables or passages of the source.
What was measured:
HIV-1 = HIV-1 single-round infectious luciferase reporter virus (pseudotype) assay in HeLa CD4 CCR5 cells; assay type: cell-based
How it was run: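 HeLa CD4 CCR5 cells (5×10^4/well, DMEM + 10% FBS) were treated with compound (final <10 μM) and infected with single-round luciferase reporter virus made in 293 cells, at MOI ~0.01. Luciferase was read 72 h post infection. EC50 came from 10-concentration percent-inhibition curves fitted to a four-parameter logistic model.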

HeLa cells = test: Cytotoxicity assay in HeLa cells (MTT dye reduction, CC50); settings: cytotoxicity; Yes = CC50 above 100 uM, No = not
How it was run: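 HeLa cells expressing CD4 and CCR5, grown in DMEM with 10% FBS, were used for cytotoxicity testing by MTT dye reduction; the text gives no further cytotoxicity conditions. The parallel antiviral assay exposed the same cells to compound at final <10 μM for 72 h.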

[1] = Metabolic stability in pooled human liver microsomes (HLM); settings: pooled human liver microsomes, 3 μM drug; Low/Intermediate/High
How it was run: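 Pooled human liver microsomes (0.9 mg/ml final) in 0.1 M potassium phosphate pH 7.4 with 0.033 mM MgCl2 and an NADPH-regenerating system. Compound pre-incubated 2 min, reaction started with cofactors, run 10 min at 37° C, quenched in acetonitrile and analysed by LC/MS.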

[2] = Rat IV and PO pharmacokinetic studies; settings: male, Sprague-Dawley, in vivo; for clearance: iv, 1 mg/kg, CL, iv dosing at 1 mg/kg; for AUC(0-t): po, 5 mg/kg, AUC 24 h, oral dosing at 5 mg/kg
Procedure: Rat Pharmacokinetic Studies: For the IV and PO pharmacokinetic studies of compounds in rats, the compound was dissolved in PEG-400/ethanol (90/10) as a solution. Rat. Male Sprague-Dawley rats (300-350 g, Hilltop Lab Animals, Inc., Scottdale, Pa.) with cannulas implanted in the jugular vein were used. The rats were fasted overnight in the PO pharmacokinetic studies. Blood samples of 0.3 ml were collected from the jugular vein in EDTA-containing microtainer tubes (Becton Dickinson, Franklin Lakes, N. J.), and centrifuged to separate plasma. In the IV study, the test compound was delivered at 1 mg/kg as a bolus over 0.5 min (n=3). […] Quantitation of Compounds in Plasma. […] The resulting supernates were separated from the precipitated proteins by centrifugation for 10 minutes and transferred to autosampler vials. Samples were either prepared manually, or with the use of the Tomtec automated liquid handler. An aliquot of 5 μL was injected for analysis. The HPLC system consisted of two Shimadzu LC10AD pumps (Columbia, Md.), a Shimadzu SIL-HTC autosampler (Columbia, Md.), and a Hewlett Packard Series 1100 column compartment (Palo Alto, Calif.). The column was a YMC Pro C18 (2.0×50 mm, 3 μm particles, Waters Co., Milford, Mass.), maintained at 60° C. and a flow rate of 0.3 ml/min. The mobile phase consisted of 10 mM ammonium formate and 0.1% formic acid in water (A) and 100% 10 mM ammonium formate and 0.1% formic acid in methanol (B). […] The mobile phase was then returned to initial conditions and the column re-equilibrated for 1 minute. Total analysis time was 4 minutes. The HPLC was interfaced to a Micromass Quattro LC. Ultra high purity nitrogen was used as the nebulizing and desolvation gas at flow rates of 100 L/hr for nebulization and 1100 L/hr for desolvation. The desolvation temperature was 300° C. and the source temperature was 150° C. Data acquisition utilized selected reaction monitoring (SRM). Ions representing the (M+H)^+ species for the compound and the internal standard were selected in MS 1 and collisionally dissociated with argon at a pressure of 2×10^−3 torr to form specific product ions which were subsequently monitored by MS2.
For accuracy, the determined measure of viral inhibition is an EC50; but the minimum plasma concentrations which should be maintained in a patient is generally believed to be at least four or five fold higher. […] Lower is better. • 4) Estimating potential exposure in man by measuring parameters such as AUC and rate of clearance by oral and iv dosing in rats. High exposure and low clearance was desired.
The rat model is an initial model used to assess potential for exposure in man.

[3] = Human immunodeficiency virus 1, HeLa-CD4/CCR5, read-out: EC50 Group from TABLE 1, HeLa CD4 CCR5 cells, single-round infectious luciferase reporter virus
[4] = Human immunodeficiency virus 1, HeLa-CD4/CCR5, read-out: EC50 category, HIV-1 single-round reporter virus assay, category 1/2/3 per Table A1 key
[5] = Human immunodeficiency virus 1, HeLa-CD4/CCR5, read-out: EC50 Group from Table 1, Table 4, HeLa CD4 CCR5 cells, single-round luciferase reporter virus
[6] = Human immunodeficiency virus 1, HeLa-CD4/CCR5, read-out: EC50 Group from Table 1, Table 2-1, HeLa CD4 CCR5 cells, single-round luciferase reporter virus
[7] = Human immunodeficiency virus 1, HeLa-CD4/CCR5, 72 h, read-out: EC50 Group from Table 1, HeLa CD4 CCR5 cells, luciferase reporter virus, harvested 72 h after infection

SMILES | EC50 (HIV-1; [3]) [nM] | EC50 (HIV-1; [4]) [nM] | CC50 > 100 uM (HeLa cells) | HLM predicted human clearance class [1] | clearance [2] [mL/min/kg] | AUC(0-t) [2] [µg·h/mL] | EC50 (HIV-1; [5]) [nM] | EC50 (HIV-1; [6]) [nM] | EC50 (HIV-1; [7]) [nM]
COc1cnc(-n2cncn2)c2[nH]cc(C(=O)C(=O)N3CCN(C(=O)c4ccccc4)CC3)c12 [Example 187, 1-benzoyl-4-[(4-methoxy-7-(1,2,4-triazol-1-yl)-6-azaindol-3-yl)-oxoacetyl]piperazine] | < 1000 | < 0.2 | Yes | Low (0-0.100) | 2.4 ± 0.5 | 22.4 ± 7.2 | – | – | –
COc1cnc(-n2ccnn2)c2[nH]cc(C(=O)C(=O)N3CCN(C(=O)c4ccccc4)CC3)c12 [Example 188, 1-benzoyl-4-[(4-methoxy-7-(1,2,3-triazol-1-yl)-6-azaindol-3-yl)-oxoacetyl]piperazine] | < 1000 | < 0.2 | Yes | Low (0-0.100) | 2.4 ± 0.08 | 20 ± 4.6 | – | – | –
COc1cnc(-n2ccc(C)n2)c2[nH]cc(C(=O)C(=O)N3CCN(C(=O)c4ccccc4)CC3)c12 [Example 190, 1-benzoyl-4-[(4-methoxy-7-(3-methyl-pyrazol-1-yl)-6-azaindol-3-yl)-oxoacetyl]piperazine] | < 1000 | < 0.2 | Yes | Low (0-0.100) | 3.7 ± 1 | 7.4 ± 3.4 | – | – | –
COc1cnc(-n2ccnc2)c2[nH]cc(C(=O)C(=O)N3CCN(C(=O)c4ccccc4)CC3)c12 [Example 193, 1-benzoyl-4-[(4-methoxy-7-(1-imidazolyl)-6-azaindol-3-yl)-oxoacetyl]piperazine] | < 1000 | < 0.2 | No | Low (0-0.100) | 4.5 ± 0.4 | 14 ± 8 | – | – | –
O=C(C(=O)N1CCN(C(=O)c2ccccc2)CC1)c1c[nH]c2c(-c3ncco3)ccnc12 [Example 204] | – | 0.2 to 1000 | Yes | Low (0-0.100) | 10 ± 1.3 | 12 ± 1.4 | < 1000 | – | –
O=C(C(=O)N1CCN(C(=O)c2ccccc2)CC1)c1c[nH]c2c(-n3nccn3)ccnc12 [Example 205, 1-(4-benzoyl-piperazin-1-yl)-2-(7-[1,2,3]triazol-2-yl-1H-pyrrolo[3,2-b]pyridin-3-yl)-ethane-1,2-dione] | – | 0.2 to 1000 | Yes | Low (0-0.100) | 5.4 ± 0.4 | 9.6 ± 1.2 | < 1000 | – | –
COc1cnc(-c2ncon2)c2[nH]cc(C(=O)C(=O)N3CCN(C(=O)c4ccccc4)CC3)c12 [Example 226] | < 1000 | < 0.2 | Yes | Low (0-0.100) | 24.5 ± 3 | 0.5 ± 0.13 | – | – | –
COc1cnc(-n2ccc(CO)n2)c2[nH]cc(C(=O)C(=O)N3CCN(C(=O)c4ccccc4)[C@H](C)C3)c12 [Example 236, (R)-1-benzoyl-2-methyl-4-[(4-methoxy-7-(3-hydroxylmethyl-pyrazol-1-yl)-6-azaindol-3-yl)-oxoacetyl]piperazine] | – | < 0.2 | Yes | Low (0-0.100) | 29 ± 6.7 | 0.56 ± 0.25 | – | < 1000 | –
COc1cnc(-n2cncn2)c2[nH]cc(C(=O)C(=O)N3CCN(C(=O)c4ccccc4)[C@H](C)C3)c12 [Example 245, (R)-1-benzoyl-2-methyl-4-[(4-methoxy-7-(1,2,4-triazol-1-yl)-6-azaindol-3-yl)-oxoacetyl]piperazine] | – | < 0.2 | Yes | Low (0-0.100) | 5.6 ± 1.8 | 12.1 ± 1.3 | – | < 1000 | –
COc1cnc(-c2cnc(N)cn2)c2[nH]cc(C(=O)C(=O)N3CCN(C(=O)c4ccccc4)[C@H](C)C3)c12 [Example 266] | – | < 0.2 | Yes | Low (0-0.100) | 37.4 ± 3.2 | 0.16 ± 0.04 | – | < 1000 | –
Nc1ccn(-c2ncc(F)c3c(C(=O)C(=O)N4CCN(C(=O)c5ccccc5)CC4)c[nH]c23)n1 [Example 309] | < 1000 | < 0.2 | Yes | Low (0-0.100) | 34.3 ± 2.6 | 0.09 ± 0.05 | – | – | –
Cc1ccn(-c2ncc(F)c3c(C(=O)C(=O)N4CCN(C(=O)c5ccccc5)CC4)c[nH]c23)n1 [Example 310] | < 1000 | < 0.2 | Yes | Low (0-0.100) | 16.5 ± 3.3 | 2.1 ± 0.4 | – | – | –
COc1cnc(-n2cnc(C)n2)c2[nH]cc(C(=O)C(=O)N3CCN(C(=O)c4ccccc4)[C@H](C)C3)c12 [Example 317] | – | < 0.2 | Yes | Low (0-0.100) | 1.9 ± 0.26 | 43 ± 12 | – | < 1000 | –
CCc1ncn(-c2ncc(OC)c3c(C(=O)C(=O)N4CCN(C(=O)c5ccccc5)[C@H](C)C4)c[nH]c23)n1 [Example 322] | – | < 0.2 | Yes | Low (0-0.100) | 1.8 ± 0.4 | 82 ± 23 | – | < 1000 | –
COc1cnc(-n2cc(C)nn2)c2[nH]cc(C(=O)C(=O)N3CCN(C(=O)c4ccccc4)[C@H](C)C3)c12 [Example 326] | – | < 0.2 | Yes | Low (0-0.100) | 8.3 | 9.8 ± 2.9 | – | < 1000 | –
C[C@@H]1CN(C(=O)C(=O)c2c[nH]c3c(-c4ncco4)ccnc23)CCN1C(=O)c1ccccc1 [Example 353] | – | 0.2 to 1000 | Yes | Low (0-0.100) | 5.6 ± 1.1 | 1360 ± 307 | – | – | < 1000
C[C@@H]1CN(C(=O)C(=O)c2c[nH]c3c(-c4nccs4)ccnc23)CCN1C(=O)c1ccccc1 [Example 354] | – | 0.2 to 1000 | Yes | Low (0-0.100) | 11.2 ± 0.8 | 1.26 | – | – | < 1000
C[C@@H]1CN(C(=O)C(=O)c2c[nH]c3c(-n4nccn4)ccnc23)CCN1C(=O)c1ccccc1 [Example 355] | – | 0.2 to 1000 | Yes | Low (0-0.100) | 13.9 ± 5.3 | 3.3 ± 0.77 | – | – | < 1000
